# Experimental data from patent US20070026080A1, “Manufacturing process for tigecycline” (Wyeth, priority 2005, published 2007).
# Experiment: Strength and degradation profile of tigecycline 20 mg/mL bulk solutions by reversed phase HPLC (effect of temperature, time, pH, dissolved oxygen; Runs A to O)
# Format: physicochemical
# Settings: 2° C.
# Description: The contents of the sample vials are dissolved in diluent. The sample solution is diluted, if necessary, and chromatographed on a reversed phase column using gradient elution. Impurities are determined by comparing the impurity peak areas in the sample preparation chromatogram to the average area of tigecycline peaks in the standard preparation chromatograms obtained concomitantly.
# Chromatographic Column—Length about 15 cm, inside diameter about 4.6 mm, packed with Inertsil ODS2, 5 μm size particles or equivalent.
# Detector—Ultraviolet spectrophotometric detector capable of operating at 248 nm with a sensitivity of about 0.5 absorbance units full scale.
# The results of additional studies to investigate the effect of processing parameters such as temperature, time, and dissolved oxygen content on the purity profile of tigecycline solutions using the following materials, methods and procedures are presented in Tables A to O.
# The experiments were run in plastic glove bags under normal laboratory light conditions. Plastic glove boxes will be used to control the headspace of the beakers. The batch size was 200 mL. • 1. Prepare the glove bag with a mixture of nitrogen and air to achieve an oxygen level in the solution as per the design. • 2. Place the jacketed beaker on the magnetic stirrer. Connect it to the cooler. Set the cooler to the desired set point. • 3. Add 200 mL of SWFI in to the beaker. Allow equilibrating. Measure the temperature and oxygen content. When it reaches the desired condition, add accurately weighed API and mix until dissolved. If necessary use spatula to aid dissolution. For pH adjustments, use 4 mL of either 0.1N NaOH or 0.1N HCl and 196 mL of WFI for manufacture. • 4. After complete dissolution, Transfer about 5.5 mL of Solution in vials and stopper them. These vials will be stoppered at the appropriate headspace conditions. Place the vials in appropriate temperature conditions. • 5. Sample the vials at 1, 4, 8, 10, 12 and 24 hours. Send the samples for analysis. Freeze the 10, 12 and 24 samples at −20° C. for analysis the following day. • 6. Measure pH and record color of the solution at each time point. Results
# The 1-hour samples were taken directly from the beakers. Samples for later time points were collected in stoppered vials processed in the atmosphere of the bag in order to simulate the headspace conditions then placed in water baths or refrigerator to maintain there respective temperature conditions. This was done to maintain safety in the lab. Disposable plastic glove bags require constant flow of a mixture of nitrogen and air to maintain headspace oxygen level that will result in the desired dissolved oxygen (DO) content in the sample. The pH of samples was measured at each sample points.
# Strength and degradation profile was analyzed by HPLC as described above. […] Degradation was slightly higher at higher temperature condition.
# [1] = Run #K, 20 mg/mL, pH 8.2, Oxygen 0.1 mg/L, hours 1,4,8,10,12,24 at r6-r11, after 24 hours
# [2] = Run #L, pH 7.7, Oxygen = 0.1 mg/L, 1 Hrs
# [3] = Run #L, pH 7.7, Oxygen = 0.1 mg/L, 4 Hrs
# [4] = Run #L, pH 7.7, Oxygen = 0.1 mg/L, 8 Hrs
# [5] = Run #L, pH 7.7, Oxygen = 0.1 mg/L, 10 Hrs
# [6] = Run #L, pH 7.7, Oxygen = 0.1 mg/L, 12 Hrs
structure (smiles),measurement,setting,value
CN(C)c1cc(NC(=O)CNC(C)(C)C)c(O)c2c1C[C@H]1C[C@H]3[C@H](N(C)C)C(O)=C(C(N)=O)C(=O)[C@@]3(O)C(O)=C1C2=O [Tigecycline],RRT 0.74 Epimer,[1],0.17%
same,RRT 1.45,[1],0.08%
same,RRT 1.64 Mino,[1],0.14%
same,RRT 1.85 MW = 597,[1],0.08%
same,Strength,[1],19.067 mg/mL
same,Total,[1],0.55%
same,RRT 0.12 MW = 633,[2],BRL (BRL means below reporting limit (meaning less than 0.05% of tigecycline peak))
same,RRT 0.23 MW = 572,[2],BRL (BRL means below reporting limit (meaning less than 0.05% of tigecycline peak))
same,RRT 0.50 MW = 601,[2],BRL (BRL means below reporting limit (meaning less than 0.05% of tigecycline peak))
same,RRT 0.55 MW = 583,[2],BRL (BRL means below reporting limit (meaning less than 0.05% of tigecycline peak))
same,RRT 0.58,[2],0.08%
same,RRT 0.64 9-Amino,[2],BRL (BRL means below reporting limit (meaning less than 0.05% of tigecycline peak))
same,RRT 0.74 Epimer,[2],0.17%
same,RRT 0.76,[2],BRL (BRL means below reporting limit (meaning less than 0.05% of tigecycline peak))
same,RRT 0.78 MW = 557,[2],BRL (BRL means below reporting limit (meaning less than 0.05% of tigecycline peak))
same,RRT 1.12,[2],BRL (BRL means below reporting limit (meaning less than 0.05% of tigecycline peak))
same,RRT 1.45,[2],0.08%
same,RRT 1.58,[2],BRL (BRL means below reporting limit (meaning less than 0.05% of tigecycline peak))
same,RRT 1.64 Mino,[2],0.14%
same,RRT 1.67 MW = 556,[2],BRL (BRL means below reporting limit (meaning less than 0.05% of tigecycline peak))
same,RRT 1.85 MW = 597,[2],0.07%
same,Strength,[2],19.23 mg/mL
same,Total,[2],0.53%
same,RRT 0.12 MW = 633,[3],BRL (BRL means below reporting limit (meaning less than 0.05% of tigecycline peak))
same,RRT 0.23 MW = 572,[3],BRL (BRL means below reporting limit (meaning less than 0.05% of tigecycline peak))
same,RRT 0.50 MW = 601,[3],BRL (BRL means below reporting limit (meaning less than 0.05% of tigecycline peak))
same,RRT 0.55 MW = 583,[3],BRL (BRL means below reporting limit (meaning less than 0.05% of tigecycline peak))
same,RRT 0.58,[3],0.08%
same,RRT 0.64 9-Amino,[3],BRL (BRL means below reporting limit (meaning less than 0.05% of tigecycline peak))
same,RRT 0.74 Epimer,[3],0.17%
same,RRT 0.76,[3],BRL (BRL means below reporting limit (meaning less than 0.05% of tigecycline peak))
same,RRT 0.78 MW = 557,[3],BRL (BRL means below reporting limit (meaning less than 0.05% of tigecycline peak))
same,RRT 1.12,[3],BRL (BRL means below reporting limit (meaning less than 0.05% of tigecycline peak))
same,RRT 1.45,[3],0.07%
same,RRT 1.58,[3],BRL (BRL means below reporting limit (meaning less than 0.05% of tigecycline peak))
same,RRT 1.64 Mino,[3],0.15%
same,RRT 1.67 MW = 556,[3],BRL (BRL means below reporting limit (meaning less than 0.05% of tigecycline peak))
same,RRT 1.85 MW = 597,[3],0.08%
same,Strength,[3],19.053 mg/mL
same,Total,[3],0.54%
same,RRT 0.12 MW = 633,[4],BRL (BRL means below reporting limit (meaning less than 0.05% of tigecycline peak))
same,RRT 0.23 MW = 572,[4],BRL (BRL means below reporting limit (meaning less than 0.05% of tigecycline peak))
same,RRT 0.50 MW = 601,[4],BRL (BRL means below reporting limit (meaning less than 0.05% of tigecycline peak))
same,RRT 0.55 MW = 583,[4],BRL (BRL means below reporting limit (meaning less than 0.05% of tigecycline peak))
same,RRT 0.58,[4],0.08%
same,RRT 0.64 9-Amino,[4],BRL (BRL means below reporting limit (meaning less than 0.05% of tigecycline peak))
same,RRT 0.74 Epimer,[4],0.17%
same,RRT 0.76,[4],0.05%
same,RRT 0.78 MW = 557,[4],BRL (BRL means below reporting limit (meaning less than 0.05% of tigecycline peak))
same,RRT 1.12,[4],BRL (BRL means below reporting limit (meaning less than 0.05% of tigecycline peak))
same,RRT 1.45,[4],0.08%
same,RRT 1.58,[4],BRL (BRL means below reporting limit (meaning less than 0.05% of tigecycline peak))
same,RRT 1.64 Mino,[4],0.13%
same,RRT 1.67 MW = 556,[4],BRL (BRL means below reporting limit (meaning less than 0.05% of tigecycline peak))
same,RRT 1.85 MW = 597,[4],0.08%
same,Strength,[4],18.988 mg/mL
same,Total,[4],0.60%
same,RRT 0.12 MW = 633,[5],BRL (BRL means below reporting limit (meaning less than 0.05% of tigecycline peak))
same,RRT 0.23 MW = 572,[5],BRL (BRL means below reporting limit (meaning less than 0.05% of tigecycline peak))
same,RRT 0.50 MW = 601,[5],BRL (BRL means below reporting limit (meaning less than 0.05% of tigecycline peak))
same,RRT 0.55 MW = 583,[5],BRL (BRL means below reporting limit (meaning less than 0.05% of tigecycline peak))
same,RRT 0.58,[5],0.07%
same,RRT 0.64 9-Amino,[5],BRL (BRL means below reporting limit (meaning less than 0.05% of tigecycline peak))
same,RRT 0.74 Epimer,[5],0.22%
same,RRT 0.76,[5],0.05%
same,RRT 0.78 MW = 557,[5],BRL (BRL means below reporting limit (meaning less than 0.05% of tigecycline peak))
same,RRT 1.12,[5],BRL (BRL means below reporting limit (meaning less than 0.05% of tigecycline peak))
same,RRT 1.45,[5],0.07%
same,RRT 1.58,[5],BRL (BRL means below reporting limit (meaning less than 0.05% of tigecycline peak))
same,RRT 1.64 Mino,[5],0.13%
same,RRT 1.67 MW = 556,[5],BRL (BRL means below reporting limit (meaning less than 0.05% of tigecycline peak))
same,RRT 1.85 MW = 597,[5],0.08%
same,Strength,[5],19.424 mg/mL
same,Total,[5],0.62%
same,RRT 0.12 MW = 633,[6],BRL (BRL means below reporting limit (meaning less than 0.05% of tigecycline peak))
same,RRT 0.23 MW = 572,[6],BRL (BRL means below reporting limit (meaning less than 0.05% of tigecycline peak))
same,RRT 0.50 MW = 601,[6],BRL (BRL means below reporting limit (meaning less than 0.05% of tigecycline peak))
same,RRT 0.55 MW = 583,[6],BRL (BRL means below reporting limit (meaning less than 0.05% of tigecycline peak))
same,RRT 0.58,[6],0.07%
same,RRT 0.64 9-Amino,[6],BRL (BRL means below reporting limit (meaning less than 0.05% of tigecycline peak))
same,RRT 0.74 Epimer,[6],0.23%
same,RRT 0.76,[6],BRL (BRL means below reporting limit (meaning less than 0.05% of tigecycline peak))
same,RRT 0.78 MW = 557,[6],BRL (BRL means below reporting limit (meaning less than 0.05% of tigecycline peak))
same,RRT 1.12,[6],BRL (BRL means below reporting limit (meaning less than 0.05% of tigecycline peak))
